From patent EP0457910A1, “NOVEL GLUCOSAMINE DERIVATIVE AND LIPOSOME CONTAINING THE SAME AS MEMBRANE COMPONENT” (Japan Tobacco Inc., priority 1989, dated 1991)

System: 5-week-old ICR male mouse
Assay: Acute toxicity No. 1: lethal toxicity test of the compounds, intraperitoneal
Type: in vivo
Conditions: for dead individuals during the observation period / general condition after the administration / weight: i.p., mice
Source text: Novel glucosamine derivative [I] according to the present invention was used to perform a lethal toxicity test with respect to mice. The following compounds were used as to-be-tested substances. • ① 6-O-palmitoyl-D-glucosamine methylglycoside • ② 6,6'-di-O-palmitoyl-D-glucosamino-(l→4)-β-D-glucosamine methylglycoside • ③ Stearylamine (Comparative Example)
Each of the above compounds was suspended in a 0.5%-CMC·Na solution to prepare a to-be-tested solution. 1.0 mℓ of each to-be-tested solution was administered intraperitoneally to a 5-week-old ICR male mouse, and a mouse mortality state was observed. Note that 1.0 mℓ of a 0.5%-CMC·Na solution was similarly administered to a solvent control group.

CCCCCCCCCCCCCCCC(=O)OC[C@H]1OC(OC)[C@H](N)[C@@H](O)[C@@H]1O (stereo partly drawn) [compound ①, 6-O-palmitoyl-D-glucosamine methylglycoside]
Total Number of dead individuals (450 ng/kg i.p.): 0/2
Number of dead individuals (450 ng/kg i.p., 1st day): 0/2
Number of dead individuals (450 ng/kg i.p., 2nd day): 0/2
Number of dead individuals (450 ng/kg i.p., 3rd day): 0/2
Number of dead individuals (450 ng/kg i.p., Day of test): 0/2
Total Number of dead individuals (900 ng/kg i.p.): 0/2
Number of dead individuals (900 ng/kg i.p., 1st day): 0/2
Number of dead individuals (900 ng/kg i.p., 2nd day): 0/2
Number of dead individuals (900 ng/kg i.p., 3rd day): 0/2
Number of dead individuals (900 ng/kg i.p., Day of test): 0/2
dead individuals during the observation period: no dead individual was found
general condition after the administration: no significant change was found
weight: an increase in weight was found as in the control

CCCCCCCCCCCCCCCC(=O)OC[C@H]1O[C@@H](O[C@H]2[C@H](O)[C@@H](N)C(OC)O[C@@H]2COC(=O)CCCCCCCCCCCCCCC)[C@H](N)[C@@H](O)[C@@H]1O (stereo partly drawn) [compound ②, 6,6'-di-O-palmitoyl-D-glucosamino-(1→4)-β-D-glucosamine methylglycoside]
Total Number of dead individuals (450 ng/kg i.p.): 0/1
Number of dead individuals (450 ng/kg i.p., 1st day): 0/1
Number of dead individuals (450 ng/kg i.p., 2nd day): 0/1
Number of dead individuals (450 ng/kg i.p., 3rd day): 0/1
Number of dead individuals (450 ng/kg i.p., Day of test): 0/1
Total Number of dead individuals (900 ng/kg i.p.): 0/1
Number of dead individuals (900 ng/kg i.p., 1st day): 0/1
Number of dead individuals (900 ng/kg i.p., 2nd day): 0/1
Number of dead individuals (900 ng/kg i.p., 3rd day): 0/1
Number of dead individuals (900 ng/kg i.p., Day of test): 0/1
dead individuals during the observation period: no dead individual was found
general condition after the administration: no significant change was found
weight: an increase in weight was found as in the control

CCCCCCCCCCCCCCCCCCN [compound ③, Stearylamine, reference compound]
Total Number of dead individuals (250 ng/kg i.p.): 1/5
Number of dead individuals (250 ng/kg i.p., 1st day): 0/5
Number of dead individuals (250 ng/kg i.p., 2nd day): 0/5
Number of dead individuals (250 ng/kg i.p., 3rd day): 1/5
Number of dead individuals (250 ng/kg i.p., Day of test): 0/5
Total Number of dead individuals (500 ng/kg i.p.): 3/5
Number of dead individuals (500 ng/kg i.p., 1st day): 0/5
Number of dead individuals (500 ng/kg i.p., 2nd day): 3/5
Number of dead individuals (500 ng/kg i.p., 3rd day): 0/2
Number of dead individuals (500 ng/kg i.p., Day of test): 0/5
Total Number of dead individuals (1,500 ng/kg i.p.): 4/4
Number of dead individuals (1,500 ng/kg i.p., 1st day): 0/4
Number of dead individuals (1,500 ng/kg i.p., 2nd day): 1/4
Number of dead individuals (1,500 ng/kg i.p., 3rd day): 3/3
Number of dead individuals (1,500 ng/kg i.p., Day of test): 0/4
general condition after the administration: a decrease in spontaneous motion was found immediately after the administration
weight: the weight was gradually decreased to result in death
